In this assay the target is p53 binding protein (Homo sapiens, UniProt Q9H4C2). The experiment in a line: HDM2 Binding Assay. An excerpt:
Binding assay using 1,4-benzodiazepine-2,5-dione (BZD) scaffold and HDM2-p53 protein.
p53 binding protein, sequence (Q9H4C2 whole entry): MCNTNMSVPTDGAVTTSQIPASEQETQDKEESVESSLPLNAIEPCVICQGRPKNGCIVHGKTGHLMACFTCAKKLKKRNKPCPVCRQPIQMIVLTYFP
Usually IC50 stands for the concentration needed to halve the response being measured. Consider `O=C(O)C(c1ccccc1)N1C(=O)c2cc(I)ccc2NC(=O)C1c1ccc(Cl)cc1` (stereo not given) [BZD Scaffold, 5], for which the IC50 was determined as 1.7 µM.

With `O=C(O)C(c1ccccc1)N1C(=O)c2ccccc2NC(=O)C1c1ccccc1` (stereo not given) [BZD Scaffold, 1], the IC50 is greater than 125 µM.

`CC(C)c1ccc2c(c1)C(=O)N(C(C(=O)O)c1ccc(Cl)cc1)C(c1ccc(Cl)cc1)C(=O)N2` (stereo not given) [BZD Scaffold, 2] came in with an IC50 of 1 µM. This lies in the single-digit micromolar range.

As for `O=C(O)C(c1ccccc1)N1C(=O)c2cc(I)ccc2NC(=O)C1c1ccc(C(F)(F)F)cc1` (stereo not given) [BZD Scaffold, 4], the IC50 amounted to 3.8 µM.

As to `O=C(O)C(c1ccccc1)N1C(=O)c2cc(I)ccc2NC(=O)C1c1ccccc1` (stereo not given) [BZD Scaffold, 3], the IC50 stood at 29 µM.

The values are drawn from BindingDB's records for doi:10.1111/j.1747-0285.2006.00365.x (Johnson & Johnson Pharmaceutical Research & Development, 2006).
